{"source": "PubChem BioAssay AID2060897", "about": "(Molecular Pharmacology Branch, DTP, NCI, 2025)", "test_system": "966289-007-R4-J1-PDC complex spheroid viability", "test": "Anticancer human tumor 966289-007-R4-J1-PDC patient-derived pancreatic adenocarcinoma cell line growth inhibition [RAS]", "details": "for pIC50: curve of first compound; for viability, T/C: stronger effect = lower value", "procedure,_shortened": "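Tumour cells grown as complex spheroids with HUVEC endothelial cells and mesenchymal stem cells, treated with RAS pathway inhibitor combinations. Each agent spans half-log steps from near clinical Cmax, or 10 microM where Cmax is unknown.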", "key": {"[1]": {"details": "second compound 0.000949 µM, first compound 0.0316 µM"}, "[2]": {"details": "second compound 0.000949 µM, first compound 0.1 µM"}, "[3]": {"details": "second compound 0.000949 µM, first compound 0.316 µM"}, "[4]": {"details": "second compound 0.000949 µM, first compound 1 µM"}, "[5]": {"details": "second compound 0.003 µM, first compound 0.0316 µM"}, "[6]": {"details": "second compound 0.003 µM, first compound 0.1 µM"}, "[7]": {"details": "second compound 0.003 µM, first compound 0.316 µM"}, "[8]": {"details": "second compound 0.003 µM, first compound 1 µM"}, "[9]": {"details": "second compound 0.00949 µM, first compound 0.0316 µM"}, "[10]": {"details": "second compound 0.00949 µM, first compound 0.1 µM"}, "[11]": {"details": "second compound 0.00949 µM, first compound 0.316 µM"}, "[12]": {"details": "second compound 0.00949 µM, first compound 1 µM"}, "[13]": {"details": "second compound 0.03 µM, first compound 0.0316 µM"}, "[14]": {"details": "second compound 0.03 µM, first compound 0.1 µM"}, "[15]": {"details": "second compound 0.03 µM, first compound 0.316 µM"}, "[16]": {"details": "second compound 0.03 µM, first compound 1 µM"}, "[17]": {"details": "second compound 0.0949 µM, first compound 0.0316 µM"}, "[18]": {"details": "second compound 0.0949 µM, first compound 0.1 µM"}, "[19]": {"details": "second compound 0.0949 µM, first compound 0.316 µM"}, "[20]": {"details": "second compound 0.0949 µM, first compound 1 µM"}, "[21]": {"details": "second compound 0.3 µM, first compound 0.0316 µM"}, "[22]": {"details": "second compound 0.3 µM, first compound 0.1 µM"}, "[23]": {"details": "second compound 0.3 µM, first compound 0.316 µM"}, "[24]": {"details": "second compound 0.3 µM, first compound 1 µM"}}, "note": "pIC50: −log10 of the molar value.", "data": [{"compound": "C=CC(=O)N1CCN(c2nc(OCC3CCCN3C)nc3c(F)c(-c4nc(N)cc(C)c4C(F)(F)F)c(Cl)cc23)C(C)C1", "note": "(centres undefined) + CCn1c(-c2cccnc2C(C)OC)c2c3cc(ccc31)N1CCOC(CC(NC(=O)C(C(C)C)N(C)C(=O)C3(F)CCN(C(=O)C#CC(C)(C)N(C)C)CC3)C(=O)N3CCCC(N3)C(=O)OCC(C)(C)C2)C1;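 note: spheroids exposed to agents for one week before readout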;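 for viability, T/C: percent viability relative to DMSO vehicle control wells as 100%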", "values": [{"measurement": "pIC50", "setting": "second compound 0.000949 µM", "value": "< 6.00"}, {"measurement": "pIC50", "setting": "second compound 0.003 µM", "value": "< 6.00"}, {"measurement": "pIC50", "setting": "second compound 0.00949 µM", "value": "< 6.00"}, {"measurement": "pIC50", "setting": "second compound 0.03 µM", "value": "< 6.00"}, {"measurement": "pIC50", "setting": "second compound 0.0949 µM", "value": "< 6.00"}, {"measurement": "pIC50", "setting": "second compound 0.3 µM", "value": "< 6.00"}, {"measurement": "viability, T/C", "setting": "second compound 0.000949 µM, first compound 0.00316 µM", "value": 94.7, "unit": "%"}, {"measurement": "viability, T/C", "setting": "second compound 0.000949 µM, first compound 0.01 µM", "value": 74.5, "unit": "%"}, {"measurement": "viability, T/C", "setting": "[1]", "value": 93.2, "unit": "%"}, {"measurement": "viability, T/C", "setting": "[2]", "value": 51, "unit": "%"}, {"measurement": "viability, T/C", "setting": "[3]", "value": 67.2, "unit": "%"}, {"measurement": "viability, T/C", "setting": "[4]", "value": 76.7, "unit": "%"}, {"measurement": "viability, T/C", "setting": "second compound 0.003 µM, first compound 0.00316 µM", "value": 105, "unit": "%"}, {"measurement": "viability, T/C", "setting": "second compound 0.003 µM, first compound 0.01 µM", "value": 66.2, "unit": "%"}, {"measurement": "viability, T/C", "setting": "[5]", "value": 90, "unit": "%"}, {"measurement": "viability, T/C", "setting": "[6]", "value": 50.3, "unit": "%"}, {"measurement": "viability, T/C", "setting": "[7]", "value": 85.4, "unit": "%"}, {"measurement": "viability, T/C", "setting": "[8]", "value": 69.7, "unit": "%"}, {"measurement": "viability, T/C", "setting": "second compound 0.00949 µM, first compound 0.00316 µM", "value": 56.1, "unit": "%"}, {"measurement": "viability, T/C", "setting": "second compound 0.00949 µM, first compound 0.01 µM", "value": 81.2, "unit": "%"}, {"measurement": "viability, T/C", "setting": "[9]", "value": 94.1, "unit": "%"}, {"measurement": "viability, T/C", "setting": "[10]", "value": 58.1, "unit": "%"}, {"measurement": "viability, T/C", "setting": "[11]", "value": 87.2, "unit": "%"}, {"measurement": "viability, T/C", "setting": "[12]", "value": 84, "unit": "%"}, {"measurement": "viability, T/C", "setting": "second compound 0.03 µM, first compound 0.00316 µM", "value": 52, "unit": "%"}, {"measurement": "viability, T/C", "setting": "second compound 0.03 µM, first compound 0.01 µM", "value": 65.9, "unit": "%"}, {"measurement": "viability, T/C", "setting": "[13]", "value": 79.7, "unit": "%"}, {"measurement": "viability, T/C", "setting": "[14]", "value": 59.8, "unit": "%"}, {"measurement": "viability, T/C", "setting": "[15]", "value": 102, "unit": "%"}, {"measurement": "viability, T/C", "setting": "[16]", "value": 85.3, "unit": "%"}, {"measurement": "viability, T/C", "setting": "second compound 0.0949 µM, first compound 0.00316 µM", "value": 61.3, "unit": "%"}, {"measurement": "viability, T/C", "setting": "second compound 0.0949 µM, first compound 0.01 µM", "value": 76.5, "unit": "%"}, {"measurement": "viability, T/C", "setting": "[17]", "value": 95, "unit": "%"}, {"measurement": "viability, T/C", "setting": "[18]", "value": 93.5, "unit": "%"}, {"measurement": "viability, T/C", "setting": "[19]", "value": 91, "unit": "%"}, {"measurement": "viability, T/C", "setting": "[20]", "value": 93.4, "unit": "%"}, {"measurement": "viability, T/C", "setting": "second compound 0.3 µM, first compound 0.00316 µM", "value": 87.8, "unit": "%"}, {"measurement": "viability, T/C", "setting": "second compound 0.3 µM, first compound 0.01 µM", "value": 90.8, "unit": "%"}, {"measurement": "viability, T/C", "setting": "[21]", "value": 106, "unit": "%"}, {"measurement": "viability, T/C", "setting": "[22]", "value": 92.2, "unit": "%"}, {"measurement": "viability, T/C", "setting": "[23]", "value": 127, "unit": "%"}, {"measurement": "viability, T/C", "setting": "[24]", "value": 91.6, "unit": "%"}]}, {"compound": "CC(Nc1ccc2c(c1)OCCn1cc(N3C(=O)OCC3C(F)F)nc1-2)C(N)=O", "note": "(centres undefined) + CCn1c(-c2cc(N3CCN(C)CC3)cnc2C(C)OC)c2c3cc(ccc31)-c1csc(n1)CC(NC(=O)C1CC1C)C(=O)N1CCCC(N1)C(=O)OCC(C)(C)C2", "values": [{"measurement": "pIC50", "setting": "second compound 0.000949 µM", "value": "< 5.00"}, {"measurement": "pIC50", "setting": "second compound 0.003 µM", "value": "< 5.00"}, {"measurement": "pIC50", "setting": "second compound 0.00949 µM", "value": "< 5.00"}, {"measurement": "pIC50", "setting": "second compound 0.03 µM", "value": "< 5.00"}, {"measurement": "pIC50", "setting": "second compound 0.0949 µM", "value": "< 5.00"}, {"measurement": "pIC50", "setting": "second compound 0.3 µM", "value": "< 5.00"}, {"measurement": "viability, T/C", "setting": "[1]", "value": 126, "unit": "%"}, {"measurement": "viability, T/C", "setting": "[2]", "value": 124, "unit": "%"}, {"measurement": "viability, T/C", "setting": "[3]", "value": 105, "unit": "%"}, {"measurement": "viability, T/C", "setting": "[4]", "value": 92.2, "unit": "%"}, {"measurement": "viability, T/C", "setting": "second compound 0.000949 µM, first compound 3.16 µM", "value": 110, "unit": "%"}, {"measurement": "viability, T/C", "setting": "second compound 0.000949 µM, first compound 10 µM", "value": 103, "unit": "%"}, {"measurement": "viability, T/C", "setting": "[5]", "value": 115, "unit": "%"}, {"measurement": "viability, T/C", "setting": "[6]", "value": 104, "unit": "%"}, {"measurement": "viability, T/C", "setting": "[7]", "value": 108, "unit": "%"}, {"measurement": "viability, T/C", "setting": "[8]", "value": 83.7, "unit": "%"}, {"measurement": "viability, T/C", "setting": "second compound 0.003 µM, first compound 3.16 µM", "value": 96.8, "unit": "%"}, {"measurement": "viability, T/C", "setting": "second compound 0.003 µM, first compound 10 µM", "value": 99.3, "unit": "%"}, {"measurement": "viability, T/C", "setting": "[9]", "value": 123, "unit": "%"}, {"measurement": "viability, T/C", "setting": "[10]", "value": 113, "unit": "%"}, {"measurement": "viability, T/C", "setting": "[11]", "value": 104, "unit": "%"}, {"measurement": "viability, T/C", "setting": "[12]", "value": 96, "unit": "%"}, {"measurement": "viability, T/C", "setting": "second compound 0.00949 µM, first compound 3.16 µM", "value": 111, "unit": "%"}, {"measurement": "viability, T/C", "setting": "second compound 0.00949 µM, first compound 10 µM", "value": 95.2, "unit": "%"}, {"measurement": "viability, T/C", "setting": "[13]", "value": 84.6, "unit": "%"}, {"measurement": "viability, T/C", "setting": "[14]", "value": 97, "unit": "%"}, {"measurement": "viability, T/C", "setting": "[15]", "value": 133, "unit": "%"}, {"measurement": "viability, T/C", "setting": "[16]", "value": 92.2, "unit": "%"}, {"measurement": "viability, T/C", "setting": "second compound 0.03 µM, first compound 3.16 µM", "value": 122, "unit": "%"}, {"measurement": "viability, T/C", "setting": "second compound 0.03 µM, first compound 10 µM", "value": 95, "unit": "%"}, {"measurement": "viability, T/C", "setting": "[17]", "value": 91.6, "unit": "%"}, {"measurement": "viability, T/C", "setting": "[18]", "value": 119, "unit": "%"}, {"measurement": "viability, T/C", "setting": "[19]", "value": 104, "unit": "%"}, {"measurement": "viability, T/C", "setting": "[20]", "value": 101, "unit": "%"}, {"measurement": "viability, T/C", "setting": "second compound 0.0949 µM, first compound 3.16 µM", "value": 114, "unit": "%"}, {"measurement": "viability, T/C", "setting": "second compound 0.0949 µM, first compound 10 µM", "value": 88.4, "unit": "%"}, {"measurement": "viability, T/C", "setting": "[21]", "value": 121, "unit": "%"}, {"measurement": "viability, T/C", "setting": "[22]", "value": 108, "unit": "%"}, {"measurement": "viability, T/C", "setting": "[23]", "value": 90.3, "unit": "%"}, {"measurement": "viability, T/C", "setting": "[24]", "value": 94.5, "unit": "%"}, {"measurement": "viability, T/C", "setting": "second compound 0.3 µM, first compound 3.16 µM", "value": 123, "unit": "%"}, {"measurement": "viability, T/C", "setting": "second compound 0.3 µM, first compound 10 µM", "value": 92, "unit": "%"}]}]}
